From patent US20090099238A1, “USE OF A PPAR-ALPHA AGONIST TO TREAT PATIENTS SUFFERING FROM WEIGHT GAIN ASSOCIATED WITH A PPAR-GAMMA AGONIST TREATMENT” (priority 2003, published 2009)

Legend:
[1] = fatty Zucker rats; cited from earlier work
[2] = Body weight (gain) in obese Zucker rats under fenofibrate, rosiglitazone or co-administration (Example 1); format: in vivo
Method: (§1) Male homozygous Zucker rats of 9 to 11 weeks of age and their lean controls were received from Iffa-Credo (France). They were put into individual cages in a temperature-, humidity- and light-controlled room (21-23° C., 12-12 h light-dark cycle). […] After acclimatization, they were randomized into groups of 10, based on body weight.
(§2) The experimental groups were: Group 1=lean rats, untreated; Group 2=obese rats, treated with the vehicle p.o., twice daily (at 8 a.m. and 8 p.m.); Group 3=obese rats, treated with Fenofibrate, 100 mg/kg, p.o., twice daily (at 8 a.m. and 8 p.m.); Group 4=obese rats, treated with Rosiglitazone. 0.3 mg/kg, p.o., twice daily (at 8 a.m. and 8 p.m.); Group 5=obese rats, treated with Rosiglitazone, 3.0 mg/kg., p.o., twice daily (at 8 a.m. and 8 p.m.); Group 6=obese rats, treated with Fenofibrate, 100 mg/kg and Rosiglitazone, 0.3 mg/kg, p.o., twice daily (at 8 a.m. and 8 p.m.); Group 7=obese rats, treated with Fenofibrate, 100 mg/kg and Rosiglitazone, 3.0 mg/kg, p.o., twice daily (at 8 a.m. and 8 p.m.).
(§3) The following parameters were monitored: glycemia (mg/dl) and body weight gain (g).

[3] = Glycemia in obese Zucker rats under fenofibrate, rosiglitazone or co-administration (Example 1); format: in vivo
Method: as §1, §2, §3

[4] = Group 4: Rosiglitazone 0.3 mg/kg p.o. twice daily, after 41 days of treatment
[5] = Group 4: Rosiglitazone 0.3 mg/kg p.o. twice daily, after 69 days of treatment
[6] = Group 5: Rosiglitazone 3.0 mg/kg p.o. twice daily, after 41 days of treatment
[7] = Group 5: Rosiglitazone 3.0 mg/kg p.o. twice daily, after 69 days of treatment
[8] = Group 3: Fenofibrate 100 mg/kg p.o. twice daily, after 41 days of treatment
[9] = Group 3: Fenofibrate 100 mg/kg p.o. twice daily, after 69 days of treatment

In the case of `COc1ccc(CC2SC(=O)NC2=O)cc1C(=O)NCc1ccc(C(F)(F)F)cc1` (stereo not drawn) [KRP 297], the “body weight gain (result in words)” value [1] is given as “no change in body weight gain”, the “serum insulin (result in words)” value [1] is given as “affected serum triglycerides and insulin” and the “serum triglycerides (result in words)” value [1] is given as “affected serum triglycerides and insulin”.
In the case of `CN(CCOc1ccc(CC2SC(=O)NC2=O)cc1)c1ccccn1` (stereo not drawn) [Rosiglitazone, rosiglitazone], the “Body Weight” value [2, 4] is reported as 538.5 ± 15.8 g, the “Body Weight” value [2, 5] is reported as 615.2 ± 25.9 g and the “Body Weight” value [2, 6] is reported as 601.4 ± 9.3 g. For the same compound, the “Body Weight” value [2, 7] was 721.0 ± 12.3 g, the Glycemia [3, 4] was 274.6 ± 56.4 mg/dL and the Glycemia [3, 5] was 446.0 ± 52.4 mg/dL. It also gave a Glycemia [3, 6] of 119.6 ± 5.9 mg/dL and a Glycemia [3, 7] of 151.4 ± 6.5 mg/dL.
With `CC(C)OC(=O)C(C)(C)Oc1ccc(C(=O)c2ccc(Cl)cc2)cc1` [Fenofibrate, fenofibrate] the “Body Weight” value [2, 8] was 357.0 ± 7.9 g, the “Body Weight” value [2, 9] was 380.6 ± 13.7 g and the Glycemia [3, 8] was 222.2 ± 53.1 mg/dL. For the same compound, the Glycemia [3, 9] was 372.5 ± 78.5 mg/dL.
